Test: serum dehydroepiandrosterone sulfate after topical application of the composition
Format: in vivo
Conditions: blood sample of recipient after application to skin
Text: Delivery of dehydroepiandrosterone to the recipient's blood stream can be confirmed by analysis of a blood sample taken from the recipient.

## C[C@]12CC[C@H](O)CC1=CC[C@@H]1[C@@H]2CC[C@]2(C)C(=O)CC[C@@H]12 [dehydroepiandrosterone]
  plateau of serum dehydroepiandrosterone sulfate relative to baseline: at least twice baseline levels
  time to increased serum levels of dehydroepiandrosterone sulfate: within twenty-four hours

Reference: patent US20050232983A1, “Transdermal patch” (INDEVUS PHARMACEUTICALS, INC., priority 2004, published 2005)
